According to patent EP4332093A1, “SALT CONTAINING PIPERAZINE POLYCYCLIC DERIVATIVE, CRYSTAL FORM THEREOF, PREPARATION METHOD THEREFOR, AND USE THEREOF” (Shanghai Hansoh Biomedical Co., Ltd., priority 2021, dated 2022):
Where a name gives a salt, the structure may show the parent alone.

Assays:
Assay type in all cases: physicochemical
[1] = Pressure crystal transformation test; conditions: tablet press at maximum pressure
Source text: The tablet press was adjusted to the maximum pressure. It was pressed into a tablet and then was subjected to PXRD characterization.

[2] = Hygroscopicity experiment of crystal form A of hydrochloride
[3] = Grinding crystal transformation test; conditions: ground in a mortar for 5 min
[4] = Crystal form stability study of hydrochloride for 30 days; conditions: 30 days; light 5000lux, 60°C, 92.5% RH, 40°C & 75% RH
Method: The diluent 80% methanol solution was added to prepare a solution containing about 0.5 mg/mL hydrochloride. The mixture was sonicated for 30min to produce a clear solution. 1mL of the soluion was filtered and measured by HPLC. See "2.3.4" for the HPLC analysis method. The content of related substances was calculated according to the peak area normalization method, and the results are shown in Table 32 below. Table 32 HPLC data of hydrochloride in stability experimental conditions for 30 days

[5] = Salt form quantification (HPLC-ELSD); conditions: Conclusion from Cl- content compared with theoretical values
Method: The number of acids binding in the salt form was quantified by HPLC-ELSD test. An appropriate amount of NaCl was weighed, and a series of linear solutions of different concentrations with the diluent acetonitrile-water (50:50) was prepared. […] The above linear solution and hydrochloride samples solution was taken to filter. [table]

[6] = Solid stability experiment of crystal forms of salt (5 and 10 days); conditions: all conditions: light 5000lx, 60°C, 92.5% RH, 50°C 75% RH; 5 and 10 days
Method: About 1 mg of different crystal forms of salt were taken and placed under the conditions of light 5000lx, high temperature 60°C, high humidity 92.5%RH, high temperature and high humidity 50°C 75%RH for 5 days and 10 days. The salt content was determined by HPLC and external standard method, and the change of relevant substances was calculated by chromatographic peak area normalization method.

[7] = Thermodynamic stability experiment of crystal form (pulping in solvents, XRPD); conditions: for Results after pulping (crystal form by XRPD): pulped for 1 week at room temperature and 50°C
Method: An organic solvent with a certain solubility was selected. […] The supernatant was discarded, and the solid was dried in vacuum (-0.1 Mpa) overnight at 50°C. The XRPD of the solid was determined and compared with XRPD of raw compound salt.

O=C(N[C@H]1C[C@H](CCN2CCN(c3cccc(Cl)c3Cl)CC2)C1)c1ncco1 [crystal form A of hydrochloride]
crystal transformation before and after pressure (PXRD) [1]: didn't undergo crystal transformation
hygroscopicity [2]: slightly hygroscopic
XRPD pattern after humidification and dehumidification ([2]; 2 cycles, 0 to 95% relative humidity): does not change
hygroscopic weight gain ([2]; RH 80%): 0.509%
crystal transformation before and after grinding (PXRD) [3]: didn't undergo crystal transformation
crystal form change (PXRD) [4]: does not undergo crystal form change
impurities (HPLC) [4]: do not increase significantly
The number of hydrochloric acid binding [5]: The number of hydrochloric acid binding in crystal form A of hydrochloride is 1
crystal form stability (impurities) [6]: stable under all conditions
Results after pulping (crystal form by XRPD) ([7]; 1,4-Dioxane): Crystal form A
crystal form after being pulped by different solvents (XRPD) ([7]; 1 week at room temperature and 50°C): the crystal form does not change
Results after pulping (crystal form by XRPD) ([7]; 2-Butanone): Crystal form A
Results after pulping (crystal form by XRPD) ([7]; 2-Methyl-tetrahydrofuran): Crystal form A
Results after pulping (crystal form by XRPD) ([7]; Acetone): Crystal form A
Results after pulping (crystal form by XRPD) ([7]; Acetonitrile): Crystal form A
Results after pulping (crystal form by XRPD) ([7]; Dichloromethane): Crystal form A
Results after pulping (crystal form by XRPD) ([7]; Ethanol): Crystal form A
Results after pulping (crystal form by XRPD) ([7]; Ethyl acetate): Crystal form A
Results after pulping (crystal form by XRPD) ([7]; Ethyl formate): Crystal form A
Results after pulping (crystal form by XRPD) ([7]; Isopropanol): Crystal form A
Results after pulping (crystal form by XRPD) ([7]; Methanol): Crystal form A
Results after pulping (crystal form by XRPD) ([7]; Methyl tert-butyl ether): Crystal form A
Results after pulping (crystal form by XRPD) ([7]; Tetrahydrofuran): Crystal form A
Results after pulping (crystal form by XRPD) ([7]; Toluene): Crystal form A
Results after pulping (crystal form by XRPD) ([7]; n-Heptane): Crystal form A
